According to publication PMC9699072 (Molecules, 2022):
Values joined by “and” are separate entries in the source; they are usually repeats but may differ in a detail not shown here. Identical values can stand only once. Counter-ions that a name gives are not always drawn.

Assays:
[1] = ORAC-FL (oxygen radical absorbance capacity) assay; assay type: biochemical; settings: mean ± SEM, n = 3, 2 h, 10 μM compound and Trolox
Description: In the oxygen radical absorbance capacity (ORAC-FL) assay, 2,2′-azobis-(2-methylpropionamidine) dihydrochloride (AAPH) is used as a free peroxyl radical generator, and fluorescein (FL) is used as a fluorescent probe. The method is based on measuring the decrease in the intensity of fluorescence with time, which characterizes the degree of decay of the fluorescent probe under the influence of peroxyl radicals. In the presence of antioxidants, the degree of decay of the fluorescent probe decreases and, accordingly, the fluorescence intensity increases. The results are expressed as TE (Trolox equivalents).
The ORAC assay utilizes a biologically relevant radical source, 2,2′-azobis(2-amidinopropane) dihydrochloride (AAPH)-derived peroxyl radicals. Thus, it is a more physiologically relevant assay than ABTS and FRAP.
The oxygen radical absorbance capacity (ORAC) was determined by the ability of compounds to protect fluorescein (FL) from peroxyl radicals that are generated by AAPH according to the known method with minor variations. The reaction was carried out at 37 °C in black 96-well plates (SPL life sciences), and the final volume of the reaction mixture was 200 µL per well. The fluorescence was recorded by Tecan M1000 PRO microplate reader (Switzerland) at 485 nm excitation and 520 nm emission.
The 0.7 mM fluorescein sodium salt stock solution in PBS pH 7.4 (137 mM sodium chloride, 2.7 mM potassium chloride, and 10 mM phosphate buffer) was prepared and stored at 4–5 °C no longer than one month. An aliquot of the fluorescein stock solution was further diluted with PBS immediately before each assay to yield a 70 nM working solution. The 133 mM AAPH solution in PBS was prepared immediately before use. The test compounds and Trolox standard were dissolved in DMSO to 400 μM. The final concentration was 10 μM for all of the samples.
The blank was composed of 15 μL PBS pH 7.4, 5 μL DMSO (final concentration: 2.5% (v/v)), 120 μL FL, and 60 μL AAPH, and it was included in each assay. PBS pH 7.4 (15 μL), antioxidant (the test compound or Trolox, 5 μL), and FL (120 μL, final concentration: 42 nM) solutions were placed in a black 96-well microplate and were pre-incubated for 15 min at 37 °C. AAPH solution (60 μL, final concentration 40 mM) was then added rapidly using a multichannel pipette. The fluorescence was recorded every minute for 2 h. A Trolox standard curve was also obtained in each assay. All reactions were carried out in quadruplicate, and two to four independent assays were performed for each sample.
Antioxidant curves (fluorescence vs. time) were first normalized to the curve of the blank (without antioxidant) corresponding to the same assay, and the net AUC corresponding to a sample was calculated by subtracting the AUC corresponding to the blank. The ORAC value was obtained by dividing the latter curve by the Trolox curve obtained in the same assay at 10 μM concentrations of compounds and Trolox. Final ORAC values, Trolox equivalents (TE), were expressed as μmol test compounds per μmol Trolox, where the value of TE for Trolox was taken as 1. Data were expressed as means ± SEM.

porcine liver CES = experiment: Inhibition of CES (4-nitrophenol acetate hydrolysis); assay type: biochemical; settings: ± SEM; for CES % inhibition at 20 μM: n = 3, 10 min incubation 25 °C; for IC50: n = 3
Description: Given the available literature data on the ability of pyrazole derivatives to inhibit acetylcholinesterase (AChE) and human carboxylesterase-1 (CES), we performed an investigation of the esterase profile for new compounds 1a–j and 4a–j, including an evaluation of their inhibitory effect on the standard enzymes set: human erythrocyte AChE, equine serum butyrylcholinesterase (BChE), and porcine liver CES (Table 2). The applicability of this set of enzymes was shown by us earlier.
Human erythrocyte acetylcholinesterase (AChE, EC 3.1.1.7), equine serum butyrylcholinesterase (BChE, EC 3.1.1.8), porcine liver carboxylesterase (CES, EC 3.1.1.1), acetylthiocholine iodide (ATCh), butyrylthiocholine iodide (BTCh), 4-nitrophenol acetate (4-NPA), and 5,5′-dithio-bis-(2-nitrobenzoic acid) (DTNB) were purchased from Sigma-Aldrich (Saint Louis, MO, USA).
All the kinetic experiments were performed under standard conditions, according to the protocol of IPAC RAS for a reversible inhibitors study.
Ellman’s colorimetric assay was used to measure AChE and BChE activity in 0.1 M K/Na phosphate buffer at pH 7.5, 25 °C [86]. Final concentrations of reactants were 0.33 mM DTNB, 0.02 unit/mL of AChE or BChE, and 1 mM of substrate (ATCh or BTCh, respectively). Reagent blanks consisted of reaction mixtures without enzyme to assess non-enzymatic hydrolysis of substrates. Porcine liver CES activity was assessed colorimetrically in 0.1 M K/Na phosphate buffer with pH 8.0 at 25 °C, by measuring the absorbance of 4-nitrophenol at 405 nm. Final enzyme and substrate (4-NPA) concentrations were 0.02 unit/mL and 1 mM, respectively. Reagent blanks included all constituents except enzyme.
Test compounds were dissolved in DMSO. Reaction mixtures contained a final DMSO concentration of 2% (v/v). Enzyme inhibition was first assessed at a single concentration of 20 µM for each compound after a 10 min incubation at 25 °C in three separate experiments. Compounds inhibiting the enzyme by more than 30% were then selected for determination of the IC50 (inhibitor concentration resulting in 50% inhibition of control enzyme activity). […] Substrate was then added, and residual enzyme activity relative to an inhibitor-free control was measured using a FLUOStar Optima microplate reader (LabTech, Ortenberg, Germany).

Compound	ORAC-FL TE (Trolox equivalent) [1]	CES % inhibition at 20 μM (porcine liver CES)	IC50 (porcine liver CES)	ORAC-FL TE (Trolox equivalent) ([1]; listed as APH)
3-methyl-1-phenyl-2-pyrazolin-5-one [EDA, reference compound]	3.71 TE and 3.71 ± 0.06 TE	8.4 ± 0.7%	–	–
O=C1NN=C(C(F)(F)F)/C1=N/O [1e]	0.98 ± 0.03 TE	5.9 ± 1.1%	–	–
O=C1NN=C(C(F)(F)C(F)(F)F)/C1=N/O [1g]	1.87 ± 0.04 TE	7.8 ± 1.4%	–	–
CC1=NNC(=O)/C1=N\O [1j]	2.85 ± 0.28 TE	–	–	–
Cl.Nc1c(C(F)(F)F)nn(-c2ccccc2)c1O [4a, 4-Amino-3-(trifluoromethyl)-1-phenyl-1H-pyrazol-5-ol hydrochloride]	3.49 TE and 3.49 ± 0.16 TE	–	44.9 ± 4 µM	–
Cl.Nc1c(C(F)(F)C(F)(F)F)nn(-c2ccccc2)c1O.O [4b, 4-Amino-3-(pentafluoroethyl)-1-phenyl-1H-pyrazol-5-ol hydrate hydrochloride]	2.12 ± 0.17 TE	16.6 ± 1.4%	–	–
Nc1c(C(F)(F)C(F)(F)C(F)(F)C(F)(F)F)nn(-c2ccccc2)c1O [4c, 5-Hydroxy-1-phenyl-3-(nonafluorobuthyl)-1H-pyrazol-4-ammonium hydrochloride]	2.82 ± 0.2 TE	–	10 µM and 10.2 µM	–
Cc1nn(-c2ccccc2)c(O)c1N.Cl.O [4d, 4-Amino-3-methyl-1-phenyl-1H-pyrazol-5-ol hydrochloride hydrate]	4.39 ± 0.04 TE	–	98.7 ± 8.8 µM	4.39 TE
Cl.Nc1c(C(F)(F)F)n[nH]c1O [4e, 4-Amino-3-(trifluoromethyl)-1H-pyrazol-5-ol hydrochloride]	0.90 ± 0.19 TE	–	–	–
Cl.Nc1c(C(F)(F)C(F)(F)F)n[nH]c1O.O [4g, 4-Amino-3-(pentafluoroethyl)-1H-pyrazol-5-ol hydrate hydrochloride]	0.54 ± 0.03 TE	6.7 ± 1.2%	–	–
Cl.Nc1c(C(F)(F)C(F)(F)C(F)(F)F)n[nH]c1O.O [4h, 4-Amino-3-(heptafluoropropyl)-1H-pyrazol-5-ol hydrate hydrochloride]	0.63 ± 0.04 TE	–	81.8 ± 7.3 µM	–
Cl.Nc1c(C(F)(F)C(F)(F)C(F)(F)C(F)(F)F)n[nH]c1O.O [4i, 4-Amino-3-(nonafluorobutyl)-1H-pyrazol-5-ol hydrate hydrochloride]	1.83 ± 0.02 TE	–	22 µM and 21.8 µM	–
Cc1n[nH]c(O)c1N.Cl [4j, 4-Amino-3-methyl-1H-pyrazol-5-ol hydrochloride]	2.06 ± 0.16 TE	4.3 ± 0.9%	–	–
Oc1cc(C(F)(F)F)nn1-c1ccccc1 [CF3-EDA, 3-trifluoromethyl-1-phenylpyrazol-5-ol, reference compound]	3.89 TE and 3.89 ± 0.04 TE	7.6 ± 1.2%	–	–
